Results from patent US7196063B1, “Peptides and pharmaceutical compositions comprising same” (NST NeuroSurvival Technologies Ltd., priority 1999, dated 2007).
pEC50: −log10 of the molar value. Values joined by “and” are separate entries in the source; they are usually repeats but may differ in a detail not shown here. Identical values can stand only once. “Also recorded” adds a separate entry of the source. Like-named read-outs stand apart in the source and are kept apart here.

Tests used:
activated platelets = settings: 2 μM
Protocol: Exposure of PS on the outer leaflet of platelets upon their activation is essential for efficient activation of coagulation factors. […] Fresh platelets were received from the Blood Bank in Beilinson Hospital, Israel. The platelets were centrifuged (10 minutes, 2700×g), washed and re-suspended in platelets buffer (137 mM NaCl, 2 mM MgCl2, 0.5 mM NaPi, 5 mM glucose and 20 mM Hepes pH 7.4). 100 μl of platelets were diluted 10 fold and activated for 10 minutes with 2 μM of the calcium ionophore A23187 in the presence of 5 mM of CaCl2. […] The platelets were then washed with platelets buffer and incubated with 5 μg/ml of streptavidin conjugated to fluorescein (FITC). Incubation was for 15 minutes at room temperature, followed by a wash and suspention in platelets buffer. The labeled platelets were subjected to a FACS analysis as described above.

HUVEC cells = assay: Binding to endothelial HUVEC cells by FACS analysis; assay type: cell-based, Human
Protocol: Binding detection was done using flow cytometric analysis to populations of HUVEC cells.
HUVEC (CC-2517, obtained from Clonetics, Walkersville, Md.) were grown on tissue culture flasks in Endothelial cell medium (EGM-2 Bulletkit, CC 3162, Clonetics). Mid-confluent cultures were harvested using Trypsine/EDTA solution (CC-5012, Clonetics). The cells were rinsed twice with TBS containing 2% BSA and kept on ice. Samples of 10^6 cells were tested for binding.
Cells were washed in 1 ml of TBS-BSA and centrifuged as before and then suspended in 100 μl of TBS-BSA containing streptavidin conjugated to fluorescein (FITC) for detection of the bound biotinylated compound. […] Thereafter, 400 μl of TBS-BSA were added and cells were entrifuged and re-suspended in 400 μl of TBS and taken for FACS analysis.

apoptotic HeLa cells [1] = test system: apoptotic HeLa cells
Protocol: One of the final steps of both intrinsic and extrinsic path-ways of coagulation, is the generation of thrombin from prothrombin. Thrombin is the final protease generated in the sequence of coagulation reaction, and its activity entails conversion of fibrinogen to fibrin, thus forming the clot. Generation of thrombin on the pro-coagulant surface of apoptotic cells was assayed (according to Bombeli T. et al., 1997, Blood 89(7), 2429–2442), by determining its activity, using the chromogenic substrate S-2366 (from Chromogenix, Sweden). Samples of pro-coagulant cells (HeLa cells treated with 500 μM of DA for 18 hours) were used for the assay. Reaction mixture, in a plastic 1 ml cuvette, contained 100 μl of cells (1.5×10^5), 350 μl of HBS (150 mM NaCl, 10 mM Hepes pH 7), and 150 μl of normal control plasma, that was re-calcified with 300 μl of 25 mM CaCl2. The reaction was started by addition of the substrate S-2366 to a final concentration of 0.2 mM, and the kinetics of thrombin activity was determined by optical density at OD405. Data was collected and analyzed by the Swift kinetics software (Pharmacia).

apoptotic HeLa cells [2] = assay: Modified APTT test with apoptotic HeLa cells as pro-coagulant surface; assay type: cell-based
Protocol: Apoptotic and control HeLa cells were prepared as described for the FACS analysis. Equal numbers of apoptotic or control non-treated cells (5×10^4) in a volume of […], were mixed with 100 μl of normal plasma, incubated for 1 min at 37° C. in a bath and then calcified by addition of 100 μl of 25 mM CaCl2, and clotting time was measured. Inhibition of the pro-coagulant activity of the apoptotic cells by NST500 compounds was tested following pre-incubation of apoptotic cells for 20 min. at room temperature with increased concentrations of the different NST 500 compounds.
The results can be seen in FIG. 4B.

[3] = test system: Russell Viper Venom (RVV)-mediated clotting; assay: RVV coagulation test in normal plasma; assay type: biochemical
Protocol: Reactions were started by mixing 100 μl of RVV reagent, and 100 μl of quality control plasma collected from normal individuals (84670-11, Instrumentation Laboratory, Italy). Clotting time was detected by visual inspection following mixing the reaction ingredients in a test tube, until the suspension could no longer be aspirated with a pastuer pipette. Clotting time was measured by two separate researchers.
100 μl of LA screen was then added and clotting time was detected as described.
The control clotting time, when no compound was added to normal plasma was 40 seconds.

apoptotic hepatocytes = assay type: in vivo, mice; settings: mouse, in vivo
Protocol: Massive hepatic apoptosis can be induced within 1–2 hr in mice following intravenous injection of anti-Fas antibody (Ogasawara J. et al., 1993, Nature, 364, 806–809). […] Five-weeks-old male BALB/c mice were injected intravenously with 10 μg/animal of purified hamster anti-Fas mAb (Jo2, PharMingen, San Diego, Calif.) using the model described by Ogasawara et. al. (Nature, 1993, 364, 806–809). […] Injections were performed at different time intervals between 5 min–2 hr after antibody treatment. […] All animals were killed 2 hr after administration of antibody followed by organ removal. Heart, lung and liver were collected. Liver were sectioned transversely across the mid-portion of each lobe; organs were fixed in phosphate-buffered formalin for histological and immunohisto-chemical analyses.
Formalin fixed paraffin-embedded tissues were sectioned (5 μm) for staining with Hematoxylin/Eosin or other techniques. Endogenous peroxidase activity was blocked by incubation with 3% H2O2.
After washing with PBS, staining was developed with 3,3-diaminobenzidine tetrahydrochloride (DAB), and counterstained with Hematoxylin.
Liver sections from different lobes were used for detection of stained apoptotic cells compared to normal cells. Using light microscopy (×400), twenty fields of stained cells were evaluated. A ratio between the number of stained apoptotic hepatocytes versus stained normal hepatocytes in the field was defined. The stained cell's score (%) corresponds to the mean of the values for the twenty evaluated fields.
The percentage of apoptotic cells in the fields was estimated by evaluating parallel sections stained with Hematoxylin/Eosin. Analysis was performed blindly, since the pathologist performing the histological evaluation was unaware of the assignment of mice to the treatment or control group.
To quantitate the microscopic examination of the pharmacokinetics studies, the number of stained cells from 20 microscopic fields was counted.

Myristate-KVSFFCKNKEKKC-K (SEQ ID NO:1) (biotin) [NST513]
binding intensity (FITC mean value), activated vs control non-treated platelets (activated platelets): 20 times
increase in the percentage of platelets stained with FITC upon activation (activated platelets; activated (A23187) vs control platelets): 6 fold
binding to HUVEC cells (HUVEC cells; 500 nM): strong binding
cells FITC positive (HUVEC cells; 500 nM): About 70%
fraction of HUVEC cells labeled (HUVEC cells; 250 μM): about 50%
change of time needed for obtaining 50% of thrombin activity (factor) (apoptotic HeLa cells [1]; 5 μM): 1.5
change of time needed for obtaining 50% of thrombin activity (factor) (apoptotic HeLa cells [1]; 10 μM): 2.6
thrombin generation by apoptotic cells (apoptotic HeLa cells [1]; 10 μM): rate of thrombin generation was also inhibited
thrombin generation by apoptotic cells (apoptotic HeLa cells [1]; 25 μM): fully block
thrombin activity (reflecting thrombin generation), dose response (apoptotic HeLa cells [1]; 5–50 μM): effectively inhibited
thrombin generation by apoptotic cells (apoptotic HeLa cells [1]; 25–50μM): Total blockage of thrombin generation
effect on clotting time of apoptotic cells (apoptotic HeLa cells [2]; 2.5–2.2 μM): marked and dose dependent inhibition of clotting time; also recorded: dose-dependent effect
increase of clotting time of apoptotic cells (factor) (apoptotic HeLa cells [2]; 2.5–2.2 μM): 3.2 times
clotting time of apoptotic cells (apoptotic HeLa cells [2]; apoptotic cells alone 50 seconds, control cells 80 seconds): 160 s
pEC50 ([3]; RVV clotting time, read-out: EC50 (effective dose of 50%)): 5.30 to 5.52
prolongation of clotting time (factor) ([3]; RVV test, normal plasma, 2.5–20 μM, control 40 seconds): 3.75 and 3.5
increase in number of stained apoptotic cells as compared to non specific staining of non-apoptotic cells (apoptotic hepatocytes): 3 times
ratio of apoptotic stained cells vs non-apoptotic cells (apoptotic hepatocytes): 5 fold
staining of normal hepatocytes (apoptotic hepatocytes): never observed
staining of apoptotic hepatocytes in anti-Fas treated mice (apoptotic hepatocytes; iv): observed at cytoplasma and cytoplasmatic border of apoptotic hepatocytes
